Results: EP0407583A1, “DERIVATIVES OF DICHLOR[…] ACYLAMIDO[…] AND INSECTICIDAL, FU[…] HEMATOCIDAL PREPARATIONS BASED ON THEM” (priority 1989, dated 1990)

Tests used:
domestic flies [1] = test: Insecticidal activity on domestic flies, laboratory test (gauze boxes); assay type: in vivo; conditions: 0.1% solution in 5% aqueous glucose solution; 50 flies per box; count in 72 hours
Method: (§1) Based on the compound there was prepared an insecticidal composition in the form of a 0.1% solution thereof in a 5% aqueous glucose solution. The activity of the insecticidal composition, according to the invention was tested on domestic flies. To this end, into the gauze-made boxes of 10x10 cm in size (6 boxes) 6-7-day flies of both sexes were placed at the rate of 50 individuals per each box. Into 5 boxes there were placed Petri dishes with a 5% aqueous glycose solutiono An insecticidal activity of the composition, according to the invention, was tested in com- parison with an insecticidal composition based on 0,0-dimethyl(1-hydroxy-2,2,2-trichloroethyl)phosphonate. The tests were also conducted in living and production premises. For this, Petri dishes containing a 0.1% aqueous solution of the insecticide of the invention, to which a 5% glucose solution was added, were put at a rate of 2-3 dishes per 20 m^2. The activity of the composition, according to the invention, was evaluated by a direct count of dead insects in 72 hours or by using the adhesive tapes and counting the number of flies on the tape prior and after the test.

Solubility (qualitative) = conditions: water, alcohols, acetone
domestic flies [2] = test: Insecticidal activity on flies, large-scale test in living and production premises; assay type: in vivo; conditions: 0.1% aqueous solution with 5% glucose, 2-3 dishes per 20 m^2, living and production premises; 72 hours
Method: as §1

Fusarium moniliforme [3] = test: Inhibition of phytopathogenic fungi growth, laboratory test on potato-dextrose agar; assay type: cell-based; conditions: active principle 0.01 % by mass in potato-dextrose agar
Method: (§2) A fungicidal composition based on this compound was prepared in the form of a 0.01% solution thereof in distilled water. A fungicidal action of the composition, according to the invention, was tested for inhibition of vegetative fungi growth such as Fusarium moniliforme, Ventura inaequalis, Rhyzoctonia ciolaceae, Botrytis cinereae, Verticillium albo-atrum, Diplodia zeae, Fusarium oxysporum, Rhoma betae, Rhyzoctonia aderholdii, Aspergillus niger, Alternaria sobani, Botrytis allii, Aspergillus fumigatis, Fusarium culmorum, Penicillium cyclopium affecting potato, sugar beet, cotton seeds either in laboratory or field conditions. For testing it to the Petri dishes containing potato-dextrose agar the composition of the invention was.added at the concentration of an active principle of 0.01 % by mass. The Petri dishes containing the same agar culture were inoculated with a mycelium of phytopathogenic fungi. For control dishes the phytopathogenic fungi were inoculated on agar without using the composition of the invention. A fungicidal effect of the composition, according to the invention was tested in comparison with the known fungicidal compositions based on 2,3-dichloro-1,4-naphthoquinone, zinc N,N'-ethylene-bis-dithiocarbamate and tetramethylthiuram disulphide.

Verticillium albo-atrum [4] = test: as above; assay type: cell-based; conditions: active principle 0.01 % by mass in potato-dextrose agar
Method: as §2

Botrytis cinereae [5] = test: as above; assay type: cell-based; conditions: active principle 0.01 % by mass in potato-dextrose agar
Method: as §2

Venturia inaequalis [6] = test: as above; assay type: cell-based; conditions: active principle 0.01 % by mass in potato-dextrose agar
Method: as §2

Rhyzoctonia violaceae [7] = test: as above; assay type: cell-based; conditions: active principle 0.01 % by mass in potato-dextrose agar
Method: as §2

Fusarium moniliforme [8] = test: Inhibition of phytopathogenic fungi, field test on affected potato plants; assay type: in vivo; conditions: 5 m^2 plots of affected potato plants sprayed
Source text: (§3) For field tests the plots of 5 m^2 in size with potato plants affected by Fusarium moniliforme, Venturia inaequalis, Rhyzoctonia violaceae, Botrytis cinereae, Verticillium albo-atrum, Diplodia zeae, Fusarium oxysporum, Rhoma betae, Rhyzoctonia aderholdii, Aspergillus niger, Alternaria sobani, Botrytis allii, Aspergillus fumigatis, Fusarium culmorum, Penicillium cyclopium were sprayed with the fungicide of the invention. To compare, the similar plots of the affected potato plants were aprayed with the known compositions indicated above.

Verticillium albo-atrum [9] = test: as above; assay type: in vivo; conditions: 5 m^2 plots of affected potato plants sprayed
Source text: as §3

Botrytis cinereae [10] = test: as above; assay type: in vivo; conditions: 5 m^2 plots of affected potato plants sprayed
Source text: as §3

Venturia inaequalis [11] = test: as above; assay type: in vivo; conditions: 5 m^2 plots of affected potato plants sprayed
Source text: as §3

Rhyzoctonia violaceae [12] = test: as above; assay type: in vivo; conditions: 5 m^2 plots of affected potato plants sprayed
Source text: as §3

Aspergillus niger [13] = test: Inhibition of phytopathogenic fungi growth, laboratory test on potato-dextrose agar; assay type: cell-based; conditions: active principle 0.01 % by mass in potato-dextrose agar
Method: as §2

Aspergillus fumigatis [14] = test: as above; assay type: cell-based; conditions: active principle 0.01 % by mass in potato-dextrose agar
Method: as §2

Fusarium culmorum [15] = test: as above; assay type: cell-based; conditions: active principle 0.01 % by mass in potato-dextrose agar
Method: as §2

Rhyzoctonia aderholdii [16] = test: as above; assay type: cell-based; conditions: active principle 0.01 % by mass in potato-dextrose agar
Method: as §2

Penicillium cyclopium [17] = test: as above; assay type: cell-based; conditions: active principle 0.01 % by mass in potato-dextrose agar
Method: as §2

Rhoma betae [18] = test: as above; assay type: cell-based; conditions: active principle 0.01 % by mass in potato-dextrose agar
Method: as §2

Aspergillus niger [19] = test: Inhibition of phytopathogenic fungi, field test on affected potato plants; assay type: in vivo; conditions: 5 m^2 plots of affected potato plants sprayed
Source text: as §3

Aspergillus fumigatis [20] = test: as above; assay type: in vivo; conditions: 5 m^2 plots of affected potato plants sprayed
Source text: as §3

Fusarium culmorum [21] = test: as above; assay type: in vivo; conditions: 5 m^2 plots of affected potato plants sprayed
Source text: as §3

Rhyzoctonia aderholdii [22] = test: as above; assay type: in vivo; conditions: 5 m^2 plots of affected potato plants sprayed
Source text: as §3

Penicillium cyclopium [23] = test: as above; assay type: in vivo; conditions: 5 m^2 plots of affected potato plants sprayed
Source text: as §3

Rhoma betae [24] = test: as above; assay type: in vivo; conditions: 5 m^2 plots of affected potato plants sprayed
Source text: as §3

O=C(CCl)NP(=O)(NCc1ccccc1)NCc1ccccc1 [Example 1, chloroacetylamidophosphoric acid dibenzylamide]
Death of flies, % tests laboratory (domestic flies [1]): 94% | solubility (Solubility (qualitative)): soluble in water, alcohols acetone | Death of flies, % tests large-scale (domestic flies [2]): 93%

O=C1C(Cl)=C(Cl)C(=O)c2ccccc21 [2,3-dichloro--1,4-naphtho-quinone, 2,3-dichloro-1,4-naphthoquinone, reference compound]
Inhibition of growth of phytopathogenic fungi colonies, % Fusatium monili-forme test laboratory (Fusarium moniliforme [3]): 55% | Inhibition of growth of phytopathogenic fungi colonies, % Verticillium albo--atrum test laboratory (Verticillium albo-atrum [4]): 53% | Inhibition of growth of phytopathogenic fungi colonies, % Botrytis cinereae test laboratory (Botrytis cinereae [5]): 38% | Inhibition of growth of phytopathogenic fungi colonies, % Venturia inaequalis test laboratory (Venturia inaequalis [6]): 40% | Inhibition of growth of phytopathogenic fungi colonies, % Rhyzoctonia violaceae test laboratory (Rhyzoctonia violaceae [7]): 34% | Inhibition of growth of phytopathogenic fungi colonies, % Fusatium monili-forme test field (Fusarium moniliforme [8]): 54% | Inhibition of growth of phytopathogenic fungi colonies, % Verticillium albo--atrum test field (Verticillium albo-atrum [9]): 52% | Inhibition of growth of phytopathogenic fungi colonies, % Botrytis cinereae test field (Botrytis cinereae [10]): 37% | Inhibition of growth of phytopathogenic fungi colonies, % Venturia inaequalis test field (Venturia inaequalis [11]): 39% | Inhibition of growth of phytopathogenic fungi colonies, % Rhyzoctonia violaceae test field (Rhyzoctonia violaceae [12]): 32%

O=C(NP(=O)(Nc1cccc(Cl)c1)Nc1cccc(Cl)c1)c1ccc(Cl)cc1 [Example 3, di-meta- chloranilide pf para-chlorobenzoylamidophosphoric acid]
Death of flies, % tests laboratory (domestic flies [1]): 87% | solubility (Solubility (qualitative)): soluble in water, alcohols, acetone | Death of flies, % tests large-scale (domestic flies [2]): 86%

O=C(NP(=O)(Nc1ccccc1Cl)Nc1ccccc1Cl)c1ccc(Br)cc1 [Example 5, para-bromo- bensoylamidophosphoric acid di-ortho-chloranilide]
Death of flies, % tests laboratory (domestic flies [1]): 100% | Death of flies, % tests large-scale (domestic flies [2]): 100%

O=C(NP(=O)(Nc1ccc(Cl)cc1Cl)Nc1ccc(Cl)cc1Cl)c1ccc(Br)cc1 [Example 6, para-bromobenzoilamidophosphoric acid di-2,4-dichloranilide]
Death of flies, % tests laboratory (domestic flies [1]): 100% | solubility (Solubility (qualitative)): soluble in water, alcohols, acetone | Death of flies, % tests large-scale (domestic flies [2]): 100%

CN(C)C(=S)SSC(=S)N(C)C [tetramethylthi-uram disulphide, tetramethylthiuram disulphide, reference compound]
Inhibition of growth of phytopathogenic fungi colonies, % Aspergillus niger test laboratory (Aspergillus niger [13]): 100% | Inhibition of growth of phytopathogenic fungi colonies, % Aspergillus fumigatis Tests laboratory (Aspergillus fumigatis [14]): 81% | Inhibition of growth of phytopathogenic fungi colonies, % Fusarium culmorum Tests laboratory (Fusarium culmorum [15]): 100% | Inhibition of growth of phytopathogenic fungi colonies, % Rhyzoctonia aderholdii test laboratory (Rhyzoctonia aderholdii [16]): 100% | Inhibition of growth of phytopathogenic fungi colonies, % Penicillium cyclopium Tests laboratory (Penicillium cyclopium [17]): 65% | Inhibition of growth of phytopathogenic fungi colonies, % Rhoma betae test laboratory (Rhoma betae [18]): 60% | Inhibition of growth of phytopathogenic fungi colonies, % Aspergillus niger test field (Aspergillus niger [19]): 98% | Inhibition of growth of phytopathogenic fungi colonies, % Aspergillus fumigatis Tests field (Aspergillus fumigatis [20]): 80% | Inhibition of growth of phytopathogenic fungi colonies, % Fusarium culmorum Tests field (Fusarium culmorum [21]): 98% | Inhibition of growth of phytopathogenic fungi colonies, % Rhyzoctonia aderholdii test field (Rhyzoctonia aderholdii [22]): 99% | Inhibition of growth of phytopathogenic fungi colonies, % Penicillium cyclopium Tests field (Penicillium cyclopium [23]): 64% | Inhibition of growth of phytopathogenic fungi colonies, % Rhoma betae test field (Rhoma betae [24]): 59%
